pKi: −log10 of the molar value.
molecular target: CDK2 (human) (UniProt P24941); test: Enzyme Assay

pKi, > 6.00:
O=c1[nH][nH]c2ccc(-c3nc4c(c(Nc5n[nH]c6c(F)cccc56)n3)CCCCC4)c(Cl)c12
Cc1cc(Nc2cc(-c3cc4c(=O)[nH][nH]c4cc3C(F)(F)F)nc3cnccc23)n[nH]1
O=c1[nH][nH]c2cc(Cl)c(-c3cc(Nc4cc(C5CC5)[nH]n4)c4ccccc4n3)cc12
Cc1cc(Nc2nc(Nc3ccc4c(=O)[nH][nH]c4c3)nc3ccc(-c4ccccc4Cl)cc23)n[nH]1
Cn1cnc(NC(=O)CCSc2ccc3c(=O)[nH][nH]c3c2)c1
Cc1cc(Nc2nc(NCc3ccc4c(=O)[nH][nH]c4c3)cc3ccccc23)n[nH]1
Cc1cc(Nc2cc(-c3ccccc3)nc(Nc3ccc4c(=O)[nH][nH]c4c3)n2)n[nH]1
CCc1cc(Nc2cc(C)[nH]n2)nc(CSc2ccc3[nH][nH]c(=O)c3c2)n1
Cc1cnc(NC2CCCC2CSc2ccc3c(=O)[nH][nH]c3c2)s1 (stereo not given)
O=c1[nH][nH]c2cc(Nc3cc4ccccc4c(Nc4n[nH]c5ccccc45)n3)ccc12
Cc1nc(Sc2ccc3c(=O)[nH][nH]c3c2)nc(Nc2cc(C3CC3)[nH]n2)c1C
Cc1cc(Nc2ccnc(Cc3ccc4c(=O)[nH][nH]c4c3)c2)n[nH]1
Cc1nc(Nc2cc(-c3ccncc3)nc(-c3ccc4[nH][nH]c(=O)c4c3C(F)(F)F)n2)n[nH]1
C#Cc1c(-c2nc(Nc3n[nH]c4ccc(F)cc34)c3ccccc3n2)ccc2[nH][nH]c(=O)c12
Cc1ccc2nc(Nc3ccc4c(=O)[nH][nH]c4c3)nc(Nc3cc(C4CC4)[nH]n3)c2n1
Cn1cnc(NC(=O)CC(=O)Oc2ccc3c(=O)[nH][nH]c3c2)c1
Nc1cncc(-c2nc(Nc3n[nH]c4ccccc34)nc(-c3cc4c(=O)[nH][nH]c4cc3C(F)(F)F)n2)c1
O=c1[nH][nH]c2cc(NOCCNc3cc(C4CC4)[nH]n3)ccc12
O=c1[nH][nH]c2cc(Cl)c(-c3cc(N4CCCCC4)nc(Nc4n[nH]c5ccccc45)n3)cc12
COCc1cc(Nc2cc(C)[nH]n2)nc(Nc2ccc3c(=O)[nH][nH]c3c2)n1
O=C(CCNc1cc(C2CC2)[nH]n1)Nc1ccc2c(=O)[nH][nH]c2c1
Cc1cc(Nc2ccnc(Oc3ccc4c(=O)[nH][nH]c4c3)c2)n[nH]1
Cc1cc(Nc2nc(Sc3ccc4c(=O)[nH][nH]c4c3)nc3cc(O)ccc23)n[nH]1
O=c1[nH][nH]c2cc(Cl)c(-c3cc(Nc4n[nH]c5ccccc45)c4c(n3)CCCC4)cc12
Cc1cc(Nc2nc(Nc3ccc4c(=O)[nH][nH]c4c3)nc3c2CCCCC3)n[nH]1
Cc1cc(Nc2cc(CSc3ccc4c(=O)[nH][nH]c4c3)nc3ccccc23)n[nH]1
O=c1[nH][nH]c2cc(Nc3cccc(Nc4cc(C5CC5)[nH]n4)c3)ccc12
Cn1cnc(NC(=O)CC(=O)Nc2ccc3c(=O)[nH][nH]c3c2)c1
O=c1[nH][nH]c2cc(OCC3CCCC3Nc3cc(C4CC4)[nH]n3)ccc12 (stereo not given)
CCc1cc(Nc2nc(-c3ccncc3)nc(-c3ccc4[nH][nH]c(=O)c4c3)n2)n[nH]1
Cc1cnc(NC2COCC(Oc3ccc4c(=O)[nH][nH]c4c3)C2)s1 (stereo not given)
CN1CCN(c2cccc3c(Nc4n[nH]c5c(F)cccc45)nc(-c4ccc5[nH][nH]c(=O)c5c4C(F)(F)F)nc23)CC1
O=c1[nH][nH]c2ccc(-c3nc(Nc4cc(C5CC5)[nH]n4)nc(-c4ccccc4)n3)cc12
O=c1[nH][nH]c2cc(SCCC(Nc3cc(C4CC4)[nH]n3)c3ccccc3)ccc12 (stereo not given)
N#Cc1cc2[nH][nH]c(=O)c2cc1-c1nc(Nc2n[nH]c3ccccc23)nc(N2CCCCC2)n1
CCc1cc(Nc2cc(C)[nH]n2)nc(Nc2ccc3c(=O)[nH][nH]c3c2)n1
Cc1cc(Nc2cc(C3CC3)[nH]n2)nc(Nc2ccc3c(=O)[nH][nH]c3c2)n1
O=c1[nH][nH]c2ccc(-c3nc(Nc4n[nH]c5c(F)cc(F)cc45)c4cc(N5CCOCC5)ccc4n3)c(C(F)(F)F)c12
COCc1cc(Nc2nc(-c3ccc4[nH][nH]c(=O)c4c3C(F)(F)F)nc3ccccc23)n[nH]1
Cn1cnc(NC2CCC(c3ccc4[nH][nH]c(=O)c4c3)C2)c1 (stereo not given)
Cc1cnc(NC2CCCC(Oc3ccc4c(=O)[nH][nH]c4c3)C2)s1 (stereo not given)
O=C(CCCc1ccc2c(=O)[nH][nH]c2c1)Nc1cc(C2CC2)[nH]n1
O=c1[nH][nH]c2cc(Cl)c(-c3cc(C4CCCCC4)nc(Nc4n[nH]c5ccccc45)n3)cc12
O=c1[nH][nH]c2ccc(CNc3cc(Nc4cc(C5CC5)[nH]n4)ccn3)cc12
O=c1[nH][nH]c2cc(SCCCNc3nccnn3)ccc12
O=c1[nH][nH]c2ccc(-c3nc(Nc4n[nH]c5ccccc45)cc(-c4ccccc4)n3)c(C(F)(F)F)c12
Cn1cnc(NC(CCCc2ccc3c(=O)[nH][nH]c3c2)c2ccccc2)c1 (stereo not given)
Cc1cc(Nc2nc(Nc3ccc4c(=O)[nH][nH]c4c3)nc3c2CN(Cc2ccccc2)CC3)n[nH]1
Cc1cnc(NC2CCC(Oc3ccc4c(=O)[nH][nH]c4c3)C2)s1 (stereo not given)
Cc1cnc(NC2CCCC2COc2ccc3c(=O)[nH][nH]c3c2)s1 (stereo not given)
O=c1[nH][nH]c2cc(Nc3nc(Nc4cc(C5CC5)[nH]n4)c4cc(N5CCOCC5)ccc4n3)ccc12
O=c1[nH][nH]c2cc(SC3COCC(Nc4ccccn4)C3)ccc12 (stereo not given)
O=c1[nH][nH]c2cc(Nc3nc(Nc4ccc5c(=O)[nH][nH]c5c4)c4ccccc4n3)ccc12
Cn1cnc(NCCC(Cc2ccccc2)Oc2ccc3c(=O)[nH][nH]c3c2)c1 (stereo not given)
CN(C)c1nc(Nc2ccc3c(=O)[nH][nH]c3c2)nc(Nc2cc(C3CC3)[nH]n2)n1
O=c1[nH][nH]c2cc(CCC3CCCC3Nc3cc(C4CC4)[nH]n3)ccc12 (stereo not given)
O=c1[nH][nH]c2cc(OC3CCCC(Nc4nccnn4)C3)ccc12 (stereo not given)
Cc1cc(Nc2nc(-c3ccc4[nH][nH]c(=O)c4c3C(F)(F)F)nc3c2CCNCC3)n[nH]1
CCc1cc(Nc2cc(C)[nH]n2)nc(C2(c3ccc4c(=O)[nH][nH]c4c3)CCC2)n1
O=c1[nH][nH]c2cc(Cc3cc4ccccc4c(Nc4cc(C5CC5)[nH]n4)n3)ccc12
Cc1cnc(NC(=O)CC(=O)Cc2ccc3c(=O)[nH][nH]c3c2)s1
Cc1nc(-c2cc3c(=O)[nH][nH]c3cc2Cl)cc(Nc2n[nH]c3ccc(F)cc23)c1C
Cc1cc(Nc2cc(NCCN(C)C)nc(Sc3ccc4c(=O)[nH][nH]c4c3)n2)n[nH]1
O=c1[nH][nH]c2cc(CCCONc3nccnn3)ccc12
O=C(NC1CC1)c1cc(Nc2nc(-c3ccc4[nH][nH]c(=O)c4c3)nc3ccccc23)n[nH]1
O=c1[nH][nH]c2cc(SCCCNc3ccccn3)ccc12
CC(C)c1cc(Nc2nc(Nc3ccc4c(=O)[nH][nH]c4c3)nc3ccccc23)n[nH]1
O=c1[nH][nH]c2cc(Cl)c(-c3cc4ncccc4c(Nc4n[nH]c5ccccc45)n3)cc12
O=c1[nH][nH]c2cc(CCCC(Nc3nccnn3)c3ccccc3)ccc12 (stereo not given)
O=c1[nH][nH]c2cc(Oc3cc4ccccc4c(Nc4cc(C5CC5)[nH]n4)n3)ccc12
CC(C)(C)OC(=O)n1[nH]c(=O)c2cc(Nc3nc(Nc4cc(C5CC5)[nH]n4)c4ccccc4n3)ccc21
O=c1[nH][nH]c2cc(Nc3ncc(N4CCOCC4)c(Nc4cc(C5CC5)[nH]n4)n3)ccc12
O=c1[nH][nH]c2cc(Nc3ncc([N+](=O)[O-])c(Nc4cc(C5CC5)[nH]n4)n3)ccc12
O=c1[nH][nH]c2cc(CSc3cc(Nc4n[nH]c5ccccc45)ccn3)ccc12
O=c1[nH][nH]c2cc(NCCCNc3nccnn3)ccc12
Cc1cc(Nc2cc(CN(C)C)nc(Sc3ccc4c(=O)[nH][nH]c4c3)n2)n[nH]1
NC1CCCCC1c1cc(Nc2n[nH]c3ccccc23)nc(-c2ccc3[nH][nH]c(=O)c3c2C(F)(F)F)n1 (stereo not given)
O=C(CCCc1ccc2c(=O)[nH][nH]c2c1)Nc1ccccn1
O=c1[nH][nH]c2ccc(OCc3cc4ccccc4c(Nc4cc(C5CC5)[nH]n4)n3)cc12
COCCNc1cc(Nc2cc(C)[nH]n2)nc(OCc2ccc3c(=O)[nH][nH]c3c2)n1
COC(=O)c1cc(Nc2cc(C)[nH]n2)nc(Sc2ccc3c(=O)[nH][nH]c3c2)n1
Nc1ncc2c(Nc3n[nH]c4ccccc34)nc(-c3ccc4[nH][nH]c(=O)c4c3C(F)(F)F)nc2n1
Cc1cnc(NC2CCC(c3ccc4[nH][nH]c(=O)c4c3)C2)s1 (stereo not given)
Cc1cc(Nc2cc(C(C)(C)C)nc(Sc3ccc4c(=O)[nH][nH]c4c3)n2)n[nH]1
COc1cccc2c(Nc3cc(C4CC4)[nH]n3)nc(Sc3ccc4c(=O)[nH][nH]c4c3)nc12
